This is an account of results in patent publication US20100015603A1, “Chimeric proteins for measuring atp concentrations in pericellular space and related screening method” (priority 2005, published 2010).

The target of assay [1] is T1, rat P2X7R (Rattus norvegicus, UniProt Q64663).
T1 construct: expressed in transfected cells; host or cells: HEK293 (HEK293-rP2X7/pmeLUC)
T1 sequence (Q64663 1-595): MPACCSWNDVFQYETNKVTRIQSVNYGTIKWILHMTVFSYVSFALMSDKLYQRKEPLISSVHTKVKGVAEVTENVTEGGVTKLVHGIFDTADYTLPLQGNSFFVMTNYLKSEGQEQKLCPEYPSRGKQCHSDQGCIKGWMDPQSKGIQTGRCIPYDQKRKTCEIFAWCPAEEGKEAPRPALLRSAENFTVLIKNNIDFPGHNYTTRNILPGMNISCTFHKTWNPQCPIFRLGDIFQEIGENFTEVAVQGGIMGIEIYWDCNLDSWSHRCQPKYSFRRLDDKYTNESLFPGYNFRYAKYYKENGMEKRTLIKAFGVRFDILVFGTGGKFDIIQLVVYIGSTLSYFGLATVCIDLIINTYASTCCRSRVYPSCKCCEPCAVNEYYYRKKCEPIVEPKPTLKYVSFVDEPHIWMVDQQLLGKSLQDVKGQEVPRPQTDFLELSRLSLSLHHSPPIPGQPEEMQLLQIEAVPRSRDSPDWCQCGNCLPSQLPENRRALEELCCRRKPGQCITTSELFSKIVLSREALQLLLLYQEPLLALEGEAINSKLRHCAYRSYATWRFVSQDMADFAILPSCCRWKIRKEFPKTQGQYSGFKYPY
The experiment in a line: ATP release through the P2X7 receptor in HEK293-rP2X7/pmeLUC cells, pmeLUC luminescence. Format: cell-based. The conditions noted are these: HEK293 cells transfected with rat P2X7R, FIG. 4A. How it is done: (§1) HEK293 cells were cultured in DMEM-F12 (Sigma-Aldrich). Media were supplemented with 10% heat-inactivated FBS, 100 U/ml penicillin and 100 μg/ml streptomycin (Invitrogen corporation, San Giuliano Milanese, Italy). ACN neuroblastoma cells were cultured in DMEM supplemented with MEM non-essential amino acid solution 100× (Sigma-Aldrich). HEK293 cells were transfected with the calcium phosphate method. Cells transiently expressing the pmeLUC construct were assayed 36 hours after transfection. Clones stably expressing pmeLUC or the P2X7R were generated by culture of the transfected cells in the presence of G418 (0.8 mg/ml, added 48 hours after transfection) for 3 weeks. Stable P2X7- or pmeLUC-expressing clones were kept in the continuous presence of 0.2 mg/ml of G418 sulphate (Geneticin) (Calbiochem, la Jolla, Calif.). ACN cells were transfected with pmeLUC by lipofectamine (Invitrogen) and tested 24 hours after transfection. Briefly, cells were incubated in 250 μl serum-free transfection medium (OPTIMEM) in the presence of lipofectamine-plus-DNA (0.4 μg per well). After 3 hours incubation 1 ml of DMEM plus 10% FBS supplemented with MEM non-essential amino acid solution 100× (Sigma-Aldrich) was added. Cells were assayed 24 hours after transfection. In order to allow a high level of plasma membrane expression of the transfected constructs, cells were incubated overnight in the presence of 1 mM DTT (Mezghrani et al, 2001). Furthermore, they were also kept at room temperature (21° C.) for two hours prior to transfer into the thermostated luminometer chamber.
ATP was measured in the custom-made luminometer described by Rizzuto and co-workers (Brini et al., 1999; Jouaville et al., 1999). […] Light emission was detected by a Thorn EMI photon counting board installed in an IBM-compatible computer. […] Alternatively, ATP was measured in the supernatants using soluble luciferase in a Firezyme luminometer as previously described (Baricordi et al., 1999; Solini et al, 2004; Zanovello et al., 1990). […]

In assay [2] the test system is J774 macrophage cells. Nature of the assay: ATP release / photon emission in J774 macrophage cells expressing pmeLUC probe. In kind it is cell-based, mouse. The conditions noted are these: ATP 5 μM to 1 mM, FIG. 6A. How it is done:
(§2) Cells cultured in flasks for cell culture (75 cm^2) were transfected with a vector containing the produced chimeric probe, by transfection techniques more suitable for the cell line under examination. As experimental model established macrophage cells, named J774, and established pulmonary epithelial cells, named […], were used after being transfected with pmeLUC probe using TransFectin (Biorad) that ensure the major percent of positive cells for these cell lines.
(§3) 36 hours after transfection cells were removed from the bottom of flasks for trypsinization. Cell suspension was transferred in a Falcon tube (from 15 to 50 ml) and centrifuged at 1200 rpm at 20° C. and finally cell precipitate was re-suspended in DMEM medium supplemented with DTT (1 mM).
(§4) 50 μl of suspension containing transfected cells (corresponding to about 50.000 cells) were seeded in each well of the plate. Cells were incubated overnight.
(§5) The day after seeding cells were incubated with a saline solution (KRB: Krebs-Ringer modified buffer: 125 mM NaCl, 5 mM KCl, 1 mM Na3PO4, 1 mM MgSO4, 1 mM CaCl2, 5.5 mM glucose, 20 mM HEPES, pH 7.4, 37° C.) supplemented with luciferin (5 μM) and were directly contacted with a photomultiplier measuring photon emission by luciferase.

Assay [3] relates to A549 pulmonary epithelial cells. Nature of the assay: ATP release / photon emission in A549 pulmonary epithelial cells expressing pmeLUC probe. Format: cell-based, human. The conditions noted are these: ATP 5 μM to 1 mM, FIG. 7A. How it is done: as §2, §3, §4, §5
In assay [4] the target is T2, human P2X7R (Homo sapiens, UniProt Q99572).
T2 construct: expressed in transfected cells; host or cells: HEK293 (HEK293-hP2X7/pmeLUC)
T2 sequence (Q99572 1-595): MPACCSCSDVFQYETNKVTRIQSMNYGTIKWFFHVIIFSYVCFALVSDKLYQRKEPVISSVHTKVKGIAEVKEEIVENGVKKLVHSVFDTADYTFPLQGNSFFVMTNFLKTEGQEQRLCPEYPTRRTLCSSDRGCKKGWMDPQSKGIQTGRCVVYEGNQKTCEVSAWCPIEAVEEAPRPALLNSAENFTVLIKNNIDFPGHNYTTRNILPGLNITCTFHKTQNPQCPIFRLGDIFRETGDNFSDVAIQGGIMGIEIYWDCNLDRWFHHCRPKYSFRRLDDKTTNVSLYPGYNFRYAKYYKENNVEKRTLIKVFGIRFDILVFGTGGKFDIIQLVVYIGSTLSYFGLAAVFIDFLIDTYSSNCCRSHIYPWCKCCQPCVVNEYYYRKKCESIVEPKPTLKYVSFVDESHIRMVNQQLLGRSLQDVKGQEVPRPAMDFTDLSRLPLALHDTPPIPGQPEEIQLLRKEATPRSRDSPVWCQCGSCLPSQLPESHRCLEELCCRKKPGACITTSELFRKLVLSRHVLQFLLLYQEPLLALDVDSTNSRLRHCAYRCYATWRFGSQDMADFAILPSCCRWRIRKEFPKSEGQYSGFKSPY
The experiment in a line: ATP release through the P2X7 receptor in HEK293-hP2X7/pmeLUC cells, pmeLUC luminescence. Format: cell-based. The conditions noted are these: HEK293 cells transfected with human P2X7R, FIG. 4B. The method, then:
as §1
(§6) ATP was measured in the custom-made luminometer described by Rizzuto and co-workers (Brini et al., 1999; Jouaville et al., 1999). For experiments, cells were plated onto 13 mm coverslips and were placed in a 37° C. thermostatted chamber (diameter 15 mm, height 2 mm) and perfused with a saline solution supplemented with luciferin at a concentration of 5 μM. The chamber was held in a photomultiplier kept in a dark refrigerated (4° C.) box. Light emission was detected by a Thorn EMI photon counting board installed in an IBM-compatible computer. The board allowed storing of the data in the computer memory for further analysis. During the experiments the thermostatted chamber was continuously perfused with buffer by means of a Gilson peristaltic pump. Alternatively, ATP was measured in the supernatants using soluble luciferase in a Firezyme luminometer as previously described (Baricordi et al., 1999; Solini et al, 2004; Zanovello et al., 1990).
Early experiments carried out not only by the authors of the present invention had shown that supernatants from cells expressing the P2X7 receptor contained a high level of ATP, which was not due to an accelerated rate of cell lysis (Baricordi et al., 1999; Adinolfi et al., 2003; Solini et al., 2004). […] To test such hypothesis several HEK293 clones were generated stably transfected with the human or rat P2X7R (HEK293-hP2X7 or HEK293-rP2X7, respectively). These clones were then transfected with pmeLUC (HEK293-P2X7/pmeLUC).

Assay [5] has as its target T3, pmeLUC (Photinus pyralis, UniProt P08659, N119G/N50D).
T3 construct: expressed in transfected cells
The experiment in a line: Response of HEK293-pmeLUC cells to extracellular nucleotides (affinity and selectivity of the pmeLUC probe, luminescence). Format: cell-based. The conditions noted are these: HEK293-pmeLUC cells, luminescence percent increase over basal. The method, then: as §6
Affinity of pmeLUC for ATP is rather low, with a threshold of about 10 μM, however, subsequent ATP additions elicit further increases in light emission that allow building a calibration curve (FIG. 2B). Importantly, pmeLUC is insensitive to all other nucleotides tested (ADP, UTP, UDP and GTP) (FIG. 2A).

The structures appear in SMILES notation.

T3 sequence (P08659 with tags, fused parts or gaps N50D/N119G): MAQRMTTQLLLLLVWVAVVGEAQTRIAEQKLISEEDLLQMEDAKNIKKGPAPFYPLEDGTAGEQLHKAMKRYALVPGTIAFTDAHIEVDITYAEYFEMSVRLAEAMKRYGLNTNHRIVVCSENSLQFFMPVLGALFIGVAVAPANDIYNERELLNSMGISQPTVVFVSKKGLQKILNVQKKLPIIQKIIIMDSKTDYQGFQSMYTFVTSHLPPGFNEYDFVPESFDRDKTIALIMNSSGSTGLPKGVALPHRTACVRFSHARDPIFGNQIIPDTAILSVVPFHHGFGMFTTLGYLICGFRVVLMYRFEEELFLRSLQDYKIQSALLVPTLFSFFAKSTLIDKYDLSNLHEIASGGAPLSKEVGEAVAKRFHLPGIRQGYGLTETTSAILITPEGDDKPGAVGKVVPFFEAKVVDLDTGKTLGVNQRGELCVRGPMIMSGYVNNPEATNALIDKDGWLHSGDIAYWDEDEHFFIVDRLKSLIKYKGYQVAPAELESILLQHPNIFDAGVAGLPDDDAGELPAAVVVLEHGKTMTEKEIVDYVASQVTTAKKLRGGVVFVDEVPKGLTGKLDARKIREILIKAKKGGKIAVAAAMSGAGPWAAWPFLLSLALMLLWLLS

For `Nc1ncnc2c1ncn2[C@@H]1O[C@H](COP(=O)(O)OP(=O)(O)OP(=O)(O)O)[C@@H](O)[C@H]1O` [ATP], the “ATP concentration at which extra-increase in luminescence over control cells is detectable” value in assay [1] was 10 to 50 µM. For the same compound, the “photon emission by the pmeLUC probe on addition of outer ATP” value in assay [2] and in assay [3] was “proportional to ATP concentration applied” throughout. Besides, the “ATP concentration at which luminescence increase over control cells is detectable” value in assay [4] is reported as “higher than 100 μM”. Further, in assay [5], the “threshold of pmeLUC for ATP (affinity)” value is reported as “about 10 μM”.
